Experimental data reported in the NIST ThermoML archive (doi:10.1016/j.fluid.2011.06.011).
± gives the expanded uncertainty stated by the source.

Assay: refractive index (Na D-line) (dimensionless); xn = mol fraction of the nth substance listed
Conditions: 101 kPa, Liquid, Standard Abbe refractometry

C=CC(C)(O)CCC=C(C)C (stereo not drawn) [3,7-dimethyl-1,6-octadien-3-ol] + CCO
refractive index
Conditions	283.15 K	298.15 K	313.15 K	328.15 K
x1 = 0.0471	–	–	–	1.3611 ± 0.00032
x1 = 0.0493	–	–	1.3678 ± 0.00032	–
x1 = 0.0506	1.38013 ± 0.00032	1.37416 ± 0.00032	–	–
x1 = 0.1008	1.39241 ± 0.00032	1.38626 ± 0.00032	1.37996 ± 0.00032	1.37358 ± 0.00032
x1 = 0.1969	1.41091 ± 0.00032	1.40451 ± 0.00033	1.39788 ± 0.00033	1.39102 ± 0.00033
x1 = 0.2884	1.42392 ± 0.00033	–	–	–
x1 = 0.2895	–	1.4175 ± 0.00034	1.41061 ± 0.00034	1.4036 ± 0.00034
x1 = 0.388	1.43469 ± 0.00035	1.42801 ± 0.00035	–	–
x1 = 0.3957	–	–	1.42171 ± 0.00035	1.41452 ± 0.00035
x1 = 0.4803	1.44248 ± 0.00037	–	–	–
x1 = 0.4834	–	1.4359 ± 0.00037	1.42883 ± 0.00037	1.42158 ± 0.00037
x1 = 0.56	1.44799 ± 0.00038	–	–	–
x1 = 0.593	–	1.44306 ± 0.00039	1.43594 ± 0.00039	1.42859 ± 0.00039
x1 = 0.6838	1.45474 ± 0.00041	1.44779 ± 0.00041	1.44061 ± 0.00041	1.43327 ± 0.00041
x1 = 0.7832	1.45921 ± 0.00043	–	–	–
x1 = 0.8438	–	1.45451 ± 0.00045	1.44732 ± 0.00045	1.43989 ± 0.00045
x1 = 0.8941	1.46319 ± 0.00046	1.45612 ± 0.00046	1.4489 ± 0.00046	1.4415 ± 0.00046
x1 = 0.9286	1.46443 ± 0.00047	–	1.45004 ± 0.00047	1.44266 ± 0.00047
x1 = 0.9337	–	1.45748 ± 0.00047	–	–
x1 = 1	1.4666 ± 0.00049	1.45946 ± 0.00049	1.45215 ± 0.00049	1.44473 ± 0.00049
